{Fluorescein} = fluorescein label (binding site for anti-fluorescein Fab-HRP); {Biotin} = biotin (capture probe anchor)
System: bacterial 16S rRNA
Test: Clinical validity study: UTI Chip on blinded clinical urine specimens
Type: binding
Experimental: Amperometric detection of bacterial 16S rRNA. An overview of the electrochemical sensor detection strategy is presented in panel C of FIG. 1. One ml of bacteria in Luria broth, inoculated clean urine, or clinical urine samples was centrifuged at 10,000×g for 5 min. The supernatant was discarded and the bacteria were lysed by resuspension of the pellet in 10 μl of 1 M NaOH and incubation at room temperature for 5 min. In some experiments, addition of 1M NaOH was preceded by resuspension of the bacterial pellet in 10 μl of 0.1% Triton X-100, 2 mM EDTA, and 1 mg/ml lysozyme (Sigma) in 20 mM Tris-HCl, pH 8.0, and incubation at room temperature for 5 min. 50 μl of the detector probe (0.25 μM) in 2.5% bovine serum albumin (Sigma, St. Louis, Mo.) 1 M phosphate buffer, pH 7.4, were added to the bacterial lysate and incubated for 10 min at 65° C. to allow target-probe hybridization. 4 μl of the bacterial lysate/detector probe mixture was deposited on each of the working electrodes in the sensor array and incubated for 15 min at 65° C. in a humidified chamber. After washing and drying, 4 μl of 0.5 U/ml anti-fluorescein horseradish peroxidase (HRP) Fab fragments (Roche, diluted in 0.5% casein in 10 mM phosphate buffered saline, pH 7.4) were deposited on each of the working electrodes for 15 min. After washing and drying, a prefabricated plastic well manifold (GeneFluidics, Monterey Park, Calif.) was bonded to the sensor array. The sensor array was put into the chip reader (FIG. 18) and 50 μl of 3,3′,5,5′-tetramethylbenzidine (TMB), H2O2 solution (K-Blue Low Activity TMB Substrate, Neogen, Lexington, Ky.) was placed on each of the sensors in the array so as to cover all three electrodes of each sensor. Electrochemical measurements are immediately and simultaneously taken for all 16 sensors. For each array, negative control (NC) sensors were tested including the UNI capture probe, detector probe, and 2.5% bovine serum albumin (Sigma, St, Louis, Mo.) in 1 M phosphate buffer, pH 7.4, instead of bacterial lysate. The entire assay protocol was completed within 45 min from the time when bacterial lysis was commenced. Amperometric current vs. time was measured using a multichannel potentiostat (GeneFluidics). The voltage was fixed at −200 mV (vs. reference), and the electroreduction current was measured at 60 s after the HRP redox reaction reached steady state.
Clinical validity study design. Clinical urine specimens were received from routine urine cultures collected from inpatients and outpatients and submitted to the UCLA Clinical Microbiology Laboratory. Routine plating on tripticase soy agar with 5% sheep blood was performed on each specimen for phenotypic identification and colony counting while an aliquot of each specimen was held at 4° C. overnight. On the day after plating, specimens were selected for inclusion in the study on the basis of a rapid indole test for the purpose of including uropathogens other than Escherichia coli in approximately one-half of the specimens. The other half of the specimens were divided between E. coli-containing specimens and specimens determined to have ““no significant growth” or no growth” (see definitions below). Because most UTIs involve a single uropathogen, specimens determined by the clinical microbiology laboratory to have more than one organism present were excluded. Blinded specimens selected for inclusion in the study were stripped of patient identifiers and any microbiological data before delivery to the research laboratory for testing with the electrochemical sensor array.
Experiments were performed on all specimens using the 16-sensor array ‘UTI Chip’, in which the UNI, EB, EC, PM, KE, PA, and EF capture probes (defined in Tables 1 and 2) were tested in duplicate. The two remaining sensors served as negative controls (including capture and detector probes without bacterial lysate). […]

[1] = No Significant Growth specimens
[2] = specimens with Citrobacter freundii
[3] = specimens with Citrobacter koseri
[4] = specimens with Enterobacter aerogenes
[5] = specimens with Enterobacter cloacae
[6] = specimens with Enterobacteriaceae
[7] = specimens with Enterococcus species
[8] = specimens with Escherichia coli
[9] = specimens with Gram-negative bacteria
[10] = specimens with Gram-positive bacteria
[11] = specimens with Klebsiella pneumoniae
[12] = specimens with Proteus mirabilis
[13] = specimens with Pseudomonas aeruginosa
[14] = specimens with Serratia marcescens
[15] = specimens with Staph. saprophyticus

Substance: UNI: Universal Bacterial probe pair: capture 797 (27 mer) SEQ ID NO: 13, detector 766 (31 mer) SEQ ID NO: 14 (DNA 1 CATCGTTTACGGCGTGGACTACCAGGG; DNA 2 TATCTAATCCTGTTTGCTCCCCACGCTTTCG; DNA 1: DNA, 5' {Biotin}, backbone and methylation of C not given here; DNA 2: DNA, 5' {Fluorescein}, backbone and methylation of C not given here)
- sensitivity for detection of Gram-negative bacteria in clinical urine specimens: 100%
- specificity (10/12 no growth specimens): 83%
- overall sensitivity for detection of uropathogens in clinical urine specimens (54/58, 0.30 log unit threshold): 93%
- Mean (range) (All specimens with bacteria): 1.28 (0.33-1.84) log10 units over background
- Positive/Total = Percent (All specimens with bacteria): 54/58 = 93%
- Mean (range) (No Growth specimens): 0.38 (0.34-0.42) log10 units over background
- Positive/Total = Percent (No Growth specimens): 2/12 = 17%
- Mean (range) [1]: 0.42 (0.31-0.57) log10 units over background
- Positive/Total = Percent [1]: 5/3 = 63%
- Mean (range) [2]: 1.49 (1.43-1.55) log10 units over background
- Positive/Total = Percent [2]: 2/2 = 100%
- Mean (range) [3]: 1.23 log10 units over background
- Positive/Total = Percent [3]: 1/1 = 100%
- Mean (range) [4]: 1.35 (0.93-1.65) log10 units over background
- Positive/Total = Percent [4]: 5/5 = 100%
- Mean (range) [5]: 1.43 log10 units over background
- Positive/Total = Percent [5]: 1/1 = 100%
- Mean (range) [6]: 1.32 (0.40-1.84) log10 units over background
- Positive/Total = Percent [6]: 47/47 = 100%
- Mean (range) [7]: 0.92 (0.33-1.78) log10 units over background
- Positive/Total = Percent [7]: 5/8 = 63%
- Mean (range) [8]: 1.30 (0.54-1.77) log10 units over background
- Positive/Total = Percent [8]: 26/26 = 100%
- Mean (range) [9]: 1.32 (0.40-1.84) log10 units over background
- Positive/Total = Percent [9]: 48/48 = 100%
- Mean (range) [10]: 0.95 (0.33-1.78) log10 units over background
- Positive/Total = Percent [10]: 6/10 = 60%
- Mean (range) [11]: 1.22 (0.40-1.84) log10 units over background
- Positive/Total = Percent [11]: 8/8 = 100%
- Mean (range) [12]: 1.41 (1.16-1.66) log10 units over background
- Positive/Total = Percent [12]: 3/3 = 100%
- Mean (range) [13]: 1.33 log10 units over background
- Positive/Total = Percent [13]: 1/1 = 100%
- Mean (range) [14]: 1.67 log10 units over background
- Positive/Total = Percent [14]: 1/1 = 100%
- Mean (range) [15]: 1.10 log10 units over background
- Positive/Total = Percent [15]: 1/2 = 50%

Source: patent US7763426B2, “Probes and methods for detection of Escheridia coli and antibiotic resistance” (priority 2004, dated 2010)
